Values after ≈ are worked out from the molar mass of the structure shown. Residues, ends and D or L forms follow the SMILES beside them. *: point of attachment. X1 = CC[C@@]1(OCCS*)C(=O)OCc2c1cc1n(c2=O)Cc2cc3ccccc3nc2-1
Tests used:
A549 [1] = assay: Antiproliferative activity against human A549 cells assessed as reduction in cell viability measured after 72 hrs by MTT assay; format: functional, cell-based; conditions: A549, 72 h
[2] = Antiproliferative activity against human HCT116-SN6 cells assessed as reduction in cell viability measured after 72 hrs by MTT assay; format: functional, cell-based; conditions: HCT116-SN6, 72 h
HepG2 [3] = assay: Cytotoxicity against human HepG2 cells assessed as reduction in cell growth incubated for 72 hrs by MTT assay; format: functional, cell-based; conditions: HepG2, 72 h
HeLa [4] = assay: cells; conditions: Homo sapiens, 72 h
Description: Cytotoxicity against human HeLa cells assessed as reduction in cell growth incubated for 72 hrs by MTT assay

HCT-116 [5] = assay: Antiproliferative activity against human HCT-116 cells assessed as reduction in cell viability measured after 72 hrs by MTT assay; format: functional, cell-based; conditions: HCT-116, 72 h
A549 [6] = assay: cells; conditions: Homo sapiens, A549, 72 h
Description: Cytotoxicity against human A549 cells assessed as reduction in cell growth incubated for 72 hrs by MTT assay

[7] = Antiproliferative activity against human HCT116-G7 cells assessed as reduction in cell viability measured after 72 hrs by MTT assay; format: functional, cell-based; conditions: HCT116-G7, 72 h
HCT-116 [8] = assay: cells; conditions: Homo sapiens, HCT-116, 72 h
Description: Cytotoxicity against human HCT-116 cells assessed as reduction in cell growth incubated for 72 hrs by MTT assay

L1210 [9] = assay: Antiproliferative activity against mouse L1210 cells assessed as inhibition of cell growth incubated for 24 hrs by MTT assay; format: functional, cell-based; conditions: L1210, 24 h
K562 [10] = assay: Antiproliferative activity against human K562 cells assessed as reduction in cell viability measured for 48 hrs by CCK-8 assay; format: functional, cell-based; conditions: K562, 48 h
HeLa [11] = assay: Antiproliferative activity against human HeLa cells assessed as reduction in cell viability measured for 48 hrs by CCK-8 assay; format: functional, cell-based
HepG2 [12] = assay: Antiproliferative activity against human HepG2 cells assessed as reduction in cell viability measured for 48 hrs by CCK-8 assay; format: functional, cell-based; conditions: HepG2, 48 h
L1210 [13] = assay: Cytotoxicity against mouse L1210 cells assessed as reduction in cell viability measured for 24 hrs by SRB assay; format: functional, cell-based; conditions: L1210, 24 h
HeLa [14] = assay: cells; conditions: Homo sapiens, 24 h
Description: Cytotoxicity against human HeLa cells assessed as reduction in cell viability measured for 24 hrs by SRB assay

HCT-116 [15] = assay: Antitumor activity against human HCT-116 cells xenografted in mouse assessed as tumor growth inhibition at 5 mg/kg administered once for every 2 days for 2 weeks relative to control; format: functional; set-up: scale not given: the % may be the effect or the level left; conditions: time 2 day
[16] = Stability in human plasma assessed as half life measured upto 24 hrs by UV/LC-MS analysis; format: ADME, cell-free
[17] = Aqueous solubility of compound at pH6.5; format: physicochemical; conditions: pH 6.5
L1210 [18] = assay: Cytotoxicity against mouse L1210 cells assessed as reduction in cell growth measured after 72 hrs by MTT assay; format: functional, cell-based; conditions: L1210, 72 h
HCT-116 [19] = assay: Cytotoxicity against human HCT-116 cells assessed as reduction in cell growth measured after 72 hrs by MTT assay; format: functional, cell-based; conditions: HCT-116, 72 h
HeLa [20] = assay: Cytotoxicity against human HeLa cells assessed as reduction in cell growth measured after 72 hrs by MTT assay; format: functional, cell-based
A549 [21] = assay: Cytotoxicity against human A549 cells assessed as reduction in cell growth measured after 72 hrs by MTT assay; format: functional, cell-based; conditions: A549, 72 h
[22] = Volume of distribution at steady state in mouse at 5 mg/kg, iv; format: ADME, organism-based; conditions: in vivo, read-out: Vdss
HeLa [23] = assay: Cytotoxicity against human HeLa cells assessed as reduction in cell viability measured for 48 hrs by MTT assay; format: functional, cell-based
A549 [24] = assay: cells; conditions: Homo sapiens, A549, 48 h
Description: Cytotoxicity against human A549 cells assessed as reduction in cell viability measured after 48 hrs by MTT assay

HepG2 [25] = assay: Cytotoxicity against human HepG2 cells assessed as cell growth inhibition measured after 48 hrs by MTT assay; format: functional, cell-based; conditions: HepG2, 48 h
A549 [26] = assay: Growth inhibition of human A549 cells incubated for 72 hrs by MTT assay; format: functional
[27] = Volume of distribution at steady state in mouse at 8 mg/kg, iv; format: ADME, organism-based; conditions: in vivo, read-out: Vdss
[28] = Toxicity in ip dosed mouse assessed as lethal dose; format: organism-based; conditions: in vivo
[29] = AUC in mouse at 8 mg/kg, iv; format: ADME, organism-based; conditions: in vivo
[30] = Toxicity in po dosed mouse assessed as lethal dose; format: organism-based; conditions: in vivo
L1210 [31] = assay: Cytotoxicity against mouse L1210 cells assessed as reduction in cell viability measured for 24 hrs by MTT assay; format: functional, cell-based; conditions: L1210, 24 h
MCF7 = assay: Growth inhibition of human MCF7 cells incubated for 72 hrs by MTT assay; format: functional
HCT-116 [32] = assay: Growth inhibition of human HCT-116 cells incubated for 72 hrs by MTT assay; format: functional
[33] = Primary half life in mouse at 8 mg/kg, iv; format: ADME, organism-based; conditions: in vivo, read-out: alphat1/2
[34] = Toxicity in iv dosed mouse assessed as lethal dose; format: organism-based; conditions: in vivo
K562 [35] = assay: Growth inhibition of human K562 cells incubated for 72 hrs by MTT assay; format: functional
[36] = Terminal half life in mouse at 8 mg/kg, iv; format: ADME, organism-based; conditions: in vivo, read-out: beta t1/2
K562 [37] = assay: Cytotoxicity against human K562 cells assessed as reduction in cell growth incubated for 48 hrs by MTT assay; format: functional, cell-based; conditions: K562, 48 h
[38] = Clearance in mouse at 8 mg/kg, iv; format: ADME, organism-based; conditions: in vivo
HCT-116 [39] = assay: Cytotoxicity against human HCT-116 cells assessed as reduction in cell viability measured after 48 hrs by MTT assay; format: functional, cell-based; conditions: HCT-116, 48 h
[40] = Aqueous solubility of compound at pH 7.4; format: physicochemical
[41] = Ratio AUC in mouse tumor to plasma; format: ADME, cell-free; conditions: tumor and plasma, read-out: Ratio AUC
Neutrophil elastase [42] = biological target: T1, Neutrophil elastase (Mus musculus, UniProt Q3UP87); assay: Inhibition of mouse Neutrophil elastase
T1 sequence (Q3UP87 whole entry): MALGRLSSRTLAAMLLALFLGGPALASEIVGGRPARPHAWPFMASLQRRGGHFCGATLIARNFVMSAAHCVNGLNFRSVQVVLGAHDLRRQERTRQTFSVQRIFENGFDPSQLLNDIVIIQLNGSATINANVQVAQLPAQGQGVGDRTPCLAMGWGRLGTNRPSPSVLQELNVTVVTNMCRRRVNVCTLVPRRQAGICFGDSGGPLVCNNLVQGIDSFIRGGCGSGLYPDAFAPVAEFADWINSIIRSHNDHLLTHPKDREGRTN

[43] = Drug recovery in bile duct cannulated rat bile measured for 48 hrs
Neutrophil elastase [44] = biological target: T2, Neutrophil elastase (Homo sapiens, UniProt P08246); assay: Inhibition of human Neutrophil elastase
T2 sequence (P08246 whole entry): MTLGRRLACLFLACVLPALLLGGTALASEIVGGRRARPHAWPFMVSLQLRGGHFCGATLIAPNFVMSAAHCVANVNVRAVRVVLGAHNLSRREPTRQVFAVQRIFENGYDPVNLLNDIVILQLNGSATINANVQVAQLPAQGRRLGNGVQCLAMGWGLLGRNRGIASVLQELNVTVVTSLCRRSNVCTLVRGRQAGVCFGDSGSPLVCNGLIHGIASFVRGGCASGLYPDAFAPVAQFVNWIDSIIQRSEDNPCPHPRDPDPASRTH

[45] = Drug recovery in bile duct cannulated rat urine measured for 48 hrs
[46] = Antiproliferative activity against human NLF cells expressing ABCG2 assessed as reduction in cell viability measured for 72 hrs by MTT assay; format: functional, cell-based
[47] = Antiproliferative activity against human SK-N-BE(2)-C cells expressing ABCG2 assessed as reduction in cell viability measured for 72 hrs by MTT assay; format: functional, cell-based

SMILES: CC[C@@]1(O)C(=O)OCc2c1cc1n(c2=O)Cc2cc3cc4c(cc3nc2-1)OCO4
- EC50 (A549 [1]): 0.86 nM
- EC50 [2]: 2.28 nM
- IC50 (HepG2 [3]): 0.104 µg/mL (≈ 0.265 µM)
- IC50 (HeLa [4]): 0.04 µg/mL (≈ 0.102 µM)
- EC50 (HCT-116 [5]): 0.36 nM
- IC50 (A549 [6]): 0.043 µg/mL (≈ 0.11 µM)
- EC50 [7]: 4.14 nM
- IC50 (HCT-116 [8]): 0.05 µg/mL (≈ 0.127 µM)

SMILES: CC[C@@]1(O)C(=O)OCc2c1cc1n(c2=O)Cc2cc3c(CN(C)C)c(O)ccc3nc2-1 [TOPOTECAN]
- IC50 (L1210 [9]): 56 nM
- IC50 (K562 [10]): 500 nM
- IC50 (HeLa [11]): 376 nM
- IC50 (HepG2 [12]): 60 nM

SMILES: CCc1c2c(nc3ccc(OC(=O)N4CCC(N5CCCCC5)CC4)cc13)-c1cc3c(c(=O)n1C2)COC(=O)[C@]3(O)CC [IRINOTECAN]
- IC50 (L1210 [13]): 1200 nM
- IC50 (HeLa [14]): 122 nM

SMILES: CC[C@H](C)[C@H](NC(=O)[C@H](CCCCN)NC(=O)[C@H](CCCCN)NC(=O)[C@H](C)NC(=O)[C@H](CC(C)C)NC(=O)[C@H](C)NC(=O)[C@H](C)NC(=O)[C@H](CC(C)C)NC(=O)[C@@H](NC(=O)[C@H](CCCCN)NC(=O)[C@H](CC(C)C)NC(=O)[C@H](CC(N)=O)NC(=O)[C@H](CCCCN)NC(=O)[C@H](CCCCN)NC(=O)[C@H](CC(C)C)NC(=O)[C@H](CC(C)C)NC(=O)[C@@H](N)CCCCN)C(C)C)C(=O)N[C@@H](CC(C)C)C(=O)NCC(=O)NCC(=O)N[C@@H](CSSCCO[C@]1(CC)C(=O)OCc2c1cc1n(c2=O)Cc2cc3ccccc3nc2-1)C(N)=O (H-KLLKKNLKVLAALAKKILGGC(X1)-NH2)
- Activity (HCT-116 [15]): 98.2%
- half-life [16]: 150 min
- solubility [17]: 1.83 µM (≈ 4.81 µg/mL)

SMILES: CCc1c2c(nc3ccc(O)cc13)-c1cc3c(c(=O)n1C2)COC(=O)[C@]3(O)CC [7-ETHYL-10-HYDROXYCAMPTOTHECIN]
- IC50 (L1210 [18]): 8.9 nM
- IC50 (HCT-116 [19]): 0.55 nM
- IC50 (HeLa [20]): 22 nM
- IC50 (A549 [21]): 1.62 nM

SMILES: CC[C@@]1(O)C(=O)OCc2c1cc1n(c2=O)Cc2c-1nc1ccc(O)cc1c2[Si](C)(C)C(C)(C)C [AR-67]
- Vd [22]: 0.73 L/kg

SMILES: CC[C@@]1(O)C(=O)OCc2c1cc1n(c2=O)Cc2cc3ccccc3nc2-1 [CAMPTOTHECIN]
- EC50 (A549 [1]): 4.17 nM
- IC50 (HeLa [23]): 8.9 nM
- IC50 (A549 [24]): 0.32 nM
- Activity (HCT-116 [15]): 37.5%
- IC50 (HepG2 [25]): 7.25 nM
- GI50 (A549 [26]): 5.69 ng/mL (≈ 0.0163 µM)
- Vd [27]: 10.8 L/kg
- LD50 [28]: 38 mg/kg
- AUC [29]: 212 µg/mL
- LD50 [30]: 50 mg/kg
- EC50 [2]: 7.63 nM
- IC50 (L1210 [31]): 14 nM
- GI50 (MCF7): 1.98 ng/mL (≈ 0.00568 µM)
- GI50 (HCT-116 [32]): 3.86 ng/mL (≈ 0.0111 µM)
- half-life [33]: 21 min
- IC50 (HepG2 [3]): 0.00725 µg/mL (≈ 0.0208 µM)
- IC50 (HeLa [4]): 0.0089 µg/mL (≈ 0.0255 µM)
- EC50 (HCT-116 [5]): 3.15 nM
- LD50 [34]: 38 mg/kg
- GI50 (K562 [35]): 0.0543 µg/mL (≈ 0.156 µM)
- half-life [36]: 276 min
- IC50 (A549 [6]): 0.00032 µg/mL (≈ 0.000919 µM)
- IC50 (K562 [37]): 2 nM
- EC50 [7]: 20.3 nM
- clearance [38]: 38 mL/min/kg
- IC50 (HCT-116 [39]): 2.01 nM
- IC50 (HCT-116 [8]): 0.00201 µg/mL (≈ 0.00577 µM)
- solubility [40]: 1.83 µM (≈ 0.637 µg/mL)

SMILES: CC[C@@]1(O)C(=O)OCc2c1cc1n(c2=O)Cc2cc3ccc(O)cc3nc2-1
- Kp [41]: 6.1

SMILES: CCCNC(=O)Nc1cccc(S(=O)(=O)Nc2cccc([C@@H](CC(=O)[O-])NC(=O)Nc3ccc(NC(=O)NCCOCCOCCOCCC(=O)N[C@@H](CC(=O)[O-])C(=O)N4CCC[C@H]4C(=O)N[C@H](C(=O)O[C@]4(CC)C(=O)OCc5c4cc4n(c5=O)Cc5c-4nc4ccccc4c5CC)C(C)C)cc3)c2)c1.[Na+].[Na+]
- IC50 (Neutrophil elastase [42]): 8.9 µM
- dose excreted at 48 h [43]: 108%
- IC50 (Neutrophil elastase [44]): 9.6 µM
- dose excreted at 48 h [45]: 2.4%

SMILES: CCc1c2c(nc3ccccc13)-c1cc3c(c(=O)n1C2)COC(=O)[C@]3(O)CC
- IC50 [46]: 80 nM
- IC50 [47]: 7 nM

SMILES: CC[C@@]1(O)C(=O)OCc2c1cc1n(c2=O)Cc2c-1nc1cc(F)c(C)c3c1c2[C@@H](N)CC3.CS(=O)(=O)O.O.O [EXATECAN MESYLATE]
- GI50 (A549 [26]): 0.914 ng/mL
- GI50 (MCF7): 0.322 ng/mL
- GI50 (HCT-116 [32]): 0.347 ng/mL
- GI50 (K562 [35]): 0.0104 µg/mL
